Reference: PMC7615677 (Science translational medicine, 2023)
Several values for one entry are separate records, joined by “and”; a condition that tells them apart may be missing. Equal values may be shown once.

Experiments:
[1] = test system: Leishmania; assay: Activity of synthesized metabolites against Leishmania; assay type: cell-based
[2] = test system: L. donovani intracellular amastigote stage; set-up: method as in PMID 25740547; details: intracellular amastigote stage of L. donovani; cited from earlier work
[3] = test system: T. cruzi; set-up: method as in PMID 25740547; details: cited from earlier work
[4] = test system: L. infantum; assay: Promastigote back-transformation assay on organs of treated hamsters; assay type: in vivo, golden hamsters
Excerpt: Female golden hamsters (5 per treatment group) were infected through intracardiac administration of 2x10^7 L. infantum amastigotes obtained from the spleen of a heavily infected donor hamster. […] After 5-day treatment period, followed by a 10-day wash out period, animals were sacrificed, and parasites burden assessed in the three target organs (liver, spleen, and bone-marrow). For this assessment, organs of individual animals were weighed, except for bone-marrow thus only providing a semi-quantitative evaluation only. Impression smears were Giemsa-stained for microscopic evaluation of amastigote burden, expressed as LDU (= mean number of amastigotes/cell × organ weight in mg) and the results were expressed as a percentage reduction compared to the burdens in the control group (vehicle as placebo). For evaluating the presence of viable residual burden after treatment, a promastigote back-transformation assay was conducted. This consisted of the incubation at ambient temperature of aseptically collected pieces of spleen or liver tissue in 1 mL of promastigote back-transformation medium in 24-well plates. For the bone-marrow, resected femurs were flushed with 1 mL medium. The medium consists of HOMEM pH 6.0 prepared as described elsewhere ([5]) with 10% fetal bovine serum (Gibco), 2.5% penicillin/streptomycin and 1% gentamicin (Merck). A qualitative assessment of the presence of promastigotes was made after 3 and 5 days of incubation and a score was attributed (+, ++ or +++) based on parasite density in the positive wells.
Supplementary Materials and methods
Promastigote transformation assay
For evaluating the presence of viable residual burdens after treatment, a promastigote back-transformation assay is conducted. This test consists of the incubation at ambient temperature of aseptically collected pieces of spleen or liver tissue in 1 mL of promastigote back-transformation medium in 24-well plates. For the bone-marrow, resected femurs are flushed with 1 mL medium. The medium consists of HOMEM pH 6.0 prepared as described elsewhere (1) with 10% fetal bovine serum (Gibco) and 2.5% penicillin/streptomycin and 1% gentamicin (Merck). A qualitative assessment of the presence of promastigotes is made after 3 and 5 days of incubation and a score is attributed (+, ++ or +++) based on parasite density in the positive […]
Supplementary Information on Tables
L. infantum MHOM/FR/96/LEM3323 Cl4 was originally obtained from a French HIV-positive patient (Languedoc area in Southern France) and provided by Dr. Laurence Lachaud of the Centre National de Référence des Leishmanioses (CNRL), Montpellier, France. The miltefosine and paromomycin resistant lines (LEM3323 Cl4 MIL-R and PMM-R) were obtained by successive in vitro selection cycles on intracellular amastigotes (2, 3)

[5] = 40 mg/kg qd, 5 days, individual animals 1-10

Cc1[nH]c2nc(N)nc(C)c2c1-c1ccc(C#N)c(O)c1O [DNDI0003578765]
activity against Leishmania, in words [1]: inactive

Cc1nc(N)nc2[nH]c(CO)c(-c3ccc(C#N)c4c3OCO4)c12 [DNDI0003671146]
activity against Leishmania, in words [1]: inactive

COc1ccccc1-c1c(C)[nH]c2nc(N)nc(C)c12 [TCMDC-143610]
EC50 [2]: 15.8 µM
EC50 [3]: 0.13 µM

CCCCCCCCCCCCCCCCOP(=O)([O-])OCC[N+](C)(C)C [miltefosine, reference compound]
emergence of viable promastigotes from recovered organs, in words ([4]; 40 mg/kg): more than half of those following miltefosine administration at 40 mg/kg were positive
parasite score, Bone-marrow [4, 5]: ++ (4×) and + (4×) and - (2×)
parasite score, Liver [4, 5]: + (3×) and - (7×)
parasite score, Spleen [4, 5]: + (5×) and ++ (4×) and -
